# Values of other authors as cited in US12564552B2, “Oral product with a basic amine and an ion pairing agent” (NICOVENTURES TRADING LIMITED, priority 2021, dated 2026).
# Assays:
# human buccal tissue = conditions: nicotine solution pH=6 vs pH 8.1, perfusion cell, Adrian et al.
# [1] = not given; remark: listed apart in the source
SMILES,solubility in water,solubility in fats and alcohols,"chemical stability (isolated, isomerizes to trans-bixin (β-bixin))",factor by which diffusion rate is reduced at pH 6 relative to pH 8.1 (human buccal tissue),log Ka1 (pyridine ring nitrogen) ([1]; pyridine ring nitrogen),log Ka2 (pyrrolidine ring nitrogen) ([1]; pyrrolidine ring nitrogen)
"CC(/C=C/C=C(C)/C=C/C(=O)O)=C\C=C\C=C(C)\C=C\C=C(C)\C=C\C(=O)O (stereo in doubt) [norbixin, (2E,4E,6E,8E,10E,12E,14E,16E,18E)-4,8,13,17-tetramethylicosa-2,4,6,8,10,12,14,16,18-nonaenedioic acid]",water-soluble,,,,,
"COC(=O)/C=C/C(C)=C\C=C\C(C)=C\C=C\C=C(C)\C=C\C=C(C)\C=C\C(=O)O [bixin, (2E,4E,6E,8E,10E,12E,14E,16Z,18E)-20-methoxy-4,8,13,17-tetramethyl-20-oxoicosa-2,4,6,8,10,12,14,16,18-nonaenoic acid]",insoluble in water,soluble in fats and alcohols,chemically unstable when isolated,,,
CN1CCCC1c1cccnc1 (stereo not shown) [nicotine],,,,~7,3.41,8.02
